Data on 13 molecules can be found in US9266876B2 (Actelion Pharmaceuticals Ltd., priority 2012, dated 2016).

As usually defined, the IC50 is the point on the concentration scale where inhibition reaches its midpoint. A higher IC50 goes with weaker potency.

human CXCR3A, sequence (P49682 whole entry): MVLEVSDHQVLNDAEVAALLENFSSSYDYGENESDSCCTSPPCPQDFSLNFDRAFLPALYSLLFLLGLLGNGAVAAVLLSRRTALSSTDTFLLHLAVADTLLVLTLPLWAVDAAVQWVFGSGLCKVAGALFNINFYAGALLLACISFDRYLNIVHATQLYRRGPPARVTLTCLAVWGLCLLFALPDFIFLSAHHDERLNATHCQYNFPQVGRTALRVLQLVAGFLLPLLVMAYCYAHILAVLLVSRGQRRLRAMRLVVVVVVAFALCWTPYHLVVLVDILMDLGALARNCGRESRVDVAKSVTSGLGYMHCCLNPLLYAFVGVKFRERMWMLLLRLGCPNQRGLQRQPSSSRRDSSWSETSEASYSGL

The assay concerns the target human CXCR3A (Homo sapiens (Human), UniProt P49682). The assay is described as follows: FLIPR assay. The class given is cell-based. Particulars: CHO-K1 cells expressing the human CXCR3A coupled to Galpha(16); CXCL10 agonist 20 nM; Fluo-4-AM fluorescence; mean values if determined several times. The method, then:
The bioactivity of compounds is tested in a fluorometric imaging plate reader (FLIPR: Molecular Devices) using engineered CHO-K1 cells expressing the human CXCR3A coupled to a G protein (Galpha(16)). Cells are plated the day prior to bioassay in F12 medium supplemented with 10% FBS and G418 and hygromycin antibiotics to maintain recombinant selection. At the day of bioassay, cells are washed and dye loaded for one hour with Fluo-4-AM (Invitrogen) in Hanks Balanced Salt Solution (Invitrogen), buffered with 20 mM Hepes at pH 7.4 and sodium bicarbonate (0.015%), containing 5 mM probenecid. […] Cells are washed free of excess dye and 60 microliter of wash buffer is added. Stock solutions of test compounds are made up at a concentration of 10 mM in DMSO, and serially diluted in dilution buffer to concentrations required for inhibition dose response curves. After a 10 minute incubation period at 37° C., 10 microliters of each compound dilution are transferred from a compound plate to the plate containing the recombinant cells in the FLIPR instrument according to the manufacturer's instructions. Following basal readings, 10 microliter CXCL10 agonist at a concentration of 20 nM (from Peprotech) is added, again using the FLIPR instrument. Changes in fluorescence are monitored before and after addition of the test compounds. Emission peak values above base level after CXCL10 addition are exported after base line subtraction. The program XLfit is used to fit the data to a single site dose response curve and to calculate IC50 values.
Turning to “1-{(R)-4-[4-(1H-Benzoimidazol-2-yl)-thiazol-5-yl]-2-methoxymethyl-piperazin-1-yl}-2-pyrrolo[2,3-b]pyridin-1-yl-ethanone [Example 20]”, the IC50 came out at 69 nM.
For the molecule `O=C(Cn1ccc(C(F)(F)F)n1)N1CCN(c2scnc2-c2nc3ccccc3[nH]2)CC1` [Example 5, 1-{4-[4-(1H-Benzoimidazol-2-yl)-thiazol-5-yl]-piperazin-1-yl}-2-(3-trifluoromethyl-pyrazol-1-yl)-ethanone], the IC50 was determined as 33 nM.
For the molecule `Cc1ccn(CC(=O)N2CCN(c3scnc3-c3nc4ccccc4[nH]3)CC2)n1` [Example 6, 1-{4-[4-(1H-Benzoimidazol-2-yl)-thiazol-5-yl]-piperazin-1-yl}-2-(3-methyl-pyrazol-1-yl)-ethanone], the IC50 worked out at 130 nM.
On to `Cc1nc(CC(=O)N2CCN(c3scnc3-c3nc4ccccc4[nH]3)CC2)cs1` [Example 7, 1-{4-[4-(1H-Benzoimidazol-2-yl)-thiazol-5-yl]-piperazin-1-yl}-2-(2-methyl-thiazol-4-yl)-ethanone], for which the half-inhibitory concentration (IC50) was determined as 516 nM.
With `O=C(Cc1cn2nc(Cl)ccc2n1)N1CCN(c2scnc2-c2nc3ccccc3[nH]2)CC1` [Example 8, 1-{4-[4-(1H-Benzoimidazol-2-yl)-thiazol-5-yl]-piperazin-1-yl}-2-(6-chloro-imidazo[1,2-b]pyridazin-2-yl)-ethanone], the 50% inhibitory concentration (IC50) amounted to 392 nM.
Next, `Cc1nc2ccccn2c1CC(=O)N1CCN(c2scnc2-c2nc3ccccc3[nH]2)CC1` [Example 9, 1-{4-[4-(1H-Benzoimidazol-2-yl)-thiazol-5-yl]-piperazin-1-yl}-2-(2-methyl-imidazo[1,2-a]pyridin-3-yl)-ethanone]: 90 nM; `Cc1nc(C)c(CC(=O)N2CCN(c3scnc3-c3nc4ccccc4[nH]3)CC2)s1` [Example 11, 1-{4-[4-(1H-Benzoimidazol-2-yl)-thiazol-5-yl]-piperazin-1-yl}-2-(2,4-dimethyl-thiazol-5-yl)-ethanone]: 311 nM; `COc1ccc2onc(CC(=O)N3CCN(c4scnc4-c4nc5ccccc5[nH]4)CC3)c2c1` [Example 12, 1-{4-[4-(1H-Benzoimidazol-2-yl)-thiazol-5-yl]-piperazin-1-yl}-2-(5-methoxy-benzo[d]isoxazol-3-yl)-ethanone]: 314 nM.
Take `Cc1cc(C)n(CC(=O)N2CCN(c3scnc3-c3nc4ccccc4[nH]3)CC2)n1` [Example 13, 1-{4-[4-(1H-Benzoimidazol-2-yl)-thiazol-5-yl]-piperazin-1-yl}-2-(3,5-dimethyl-pyrazol-1-yl)-ethanone]: the IC50 came to 92 nM.
In the case of `C[C@@H]1CN(c2scnc2-c2nc3c(F)cccc3[nH]2)CCN1C(=O)Cn1ccc2cccnc21` [Example 21, 1-{(R)-4-[4-(4-Fluoro-1H-benzoimidazol-2-yl)-thiazol-5-yl]-2-methyl-piperazin-1-yl}-2-pyrrolo[2,3-b]pyridin-1-yl-ethanone], the half-maximal inhibitory concentration (IC50) stood at 2 nM.
`C[C@@H]1CN(c2scnc2-c2nc3cc(Cl)c(F)cc3[nH]2)CCN1C(=O)Cn1ccc2cccnc21` [Example 26, 1-{(R)-4-[4-(5-Chloro-6-fluoro-1H-benzoimidazol-2-yl)-thiazol-5-yl]-2-methyl-piperazin-1-yl}-2-pyrrolo[2,3-b]pyridin-1-yl-ethanone] yielded an IC50 of 1 nM.
Next, `C[C@@H]1CN(c2scnc2-c2nc3c(F)c(F)ccc3[nH]2)CCN1C(=O)Cn1ccc2cccnc21` [Example 28, 1-{(R)-4-[4-(4,5-Difluoro-1H-benzoimidazol-2-yl)-thiazol-5-yl]-2-methyl-piperazin-1-yl}-2-pyrrolo[2,3-b]pyridin-1-yl-ethanone]: 1 nM; `Cn1c(=O)n(CC(=O)N2CCN(c3scnc3-c3nc4c(Cl)cccc4[nH]3)CC2)c2ccccc21` [Example 29, 1-(2-{4-[4-(4-Chloro-1H-benzoimidazol-2-yl)-thiazol-5-yl]-piperazin-1-yl}-2-oxo-ethyl)-3-methyl-1,3-dihydro-benzoimidazol-2-one]: 4 nM.
